Experimental data as given in US20230278972A1, “SUBSTITUTED HALOALKYL SULFONANILIDE HERBICIDES” (FMC Corporation, priority 2020, published 2023).

Columns and labels:
Type in all cases: in vivo
[1] = tested on: blackgrass (Alopecurus myosuroides); assay: Test A1 postemergence, blackgrass; conditions: 0 to 100 scale (0 no effect, 100 complete control); for Plant response rating, Blackgrass: Postemergence; for Blackgrass plant response rating: postemergence
Method in brief: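 Both timings started from seed in a loam-sand blend. Preemergence pots got a directed soil application immediately; postemergence pots were sprayed when seedlings had one or two leaves and stood 2–10 cm. Each compound was prepared in a non-phytotoxic solvent plus surfactant.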

corn (Zea mays) = assay: Test A1 postemergence, corn; conditions: for Plant response rating, Corn: Postemergence; for Corn plant response rating: postemergence
Method in brief: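 Seeds were first planted into a blend of loam soil and sand and given a preemergence directed soil spray. In parallel, pots of the same soil were sown for postemergence application once plants reached 2 to 10 cm and the one- to two-leaf stage. Both used surfactant-containing non-phytotoxic solvent formulations.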

[2] = tested on: Oat, Wild (wild oat, Avena fatua); assay: Test A1 postemergence, Oat, Wild; conditions: for Oat, Wild plant response rating: postemergence; for Plant response rating, Oat, Wild: Postemergence
Method in brief: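 Plants grown in pots of loam/sand mix; preemergence = soil-directed spray on seeded pots, postemergence = spray at 1–2 leaves, height 2–10 cm; test chemicals formulated in non-phytotoxic solvent with surfactant.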

rice (Oryza sativa) = assay: Test B1 flooded paddy test, rice; conditions: 250 g ai/ha, Flood, applied to paddy water, 2-leaf stage, visually evaluated after 10 to 14 days
Source text: A dash (-) response means no test result.

[3] = 31 g ai/ha, 0 to 100 scale (0 no effect, 100 complete control), 10 days
[4] = 31 g ai/ha, 0 to 100 scale (0 no effect, 100 complete control)
[5] = 125 g ai/ha, 0 to 100 scale (0 no effect, 100 complete control), 10 days

Structure (SMILES) | Plant response rating, Blackgrass ([1]; 31 g ai/ha, 10 days) | Plant response rating, Blackgrass ([1]; 125 g ai/ha) | Plant response rating, Corn (corn (Zea mays); [3]) | Plant response rating, Corn (corn (Zea mays); 125 g ai/ha, 0 to 100 scale) | Oat, Wild plant response rating [2, 4] | Plant response rating, Oat, Wild ([2]; 125 g ai/ha, 0 to 100 scale) | Plant response rating, Rice (0 to 100 scale, 0 is no effect, 100 is complete control) (rice (Oryza sativa)) | Blackgrass plant response rating ([1]; 31 g ai/ha) | Plant response rating, Blackgrass ([1]; 125 g ai/ha, 10 days) | Corn plant response rating (corn (Zea mays); [4]) | Plant response rating, Corn (corn (Zea mays); [5]) | Plant response rating, Oat, Wild [2, 5] | Plant response rating, Blackgrass ([1]; 500 g ai/ha) | Plant response rating, Corn (corn (Zea mays); 500 g ai/ha, 0 to 100 scale) | Plant response rating, Oat, Wild ([2]; 500 g ai/ha, 0 to 100 scale) | Plant response rating, Oat, Wild [2, 3]
CCC1CC(c2cc(NS(=O)(=O)C(F)(F)F)c(C)cc2C)=NO1 (centres unmarked) [Compound 375] | 0 | 0 | 0 | 0 | 0 | 0 | 15 |  |  |  |  |  |  |  |  | 
COC1CCC2(CC1)CCN(c1cc(NS(=O)(=O)C(F)(F)F)c(C)cc1C)C2=O (centres unmarked) [Compound 398] |  |  |  |  | 0 |  | 30 | 0 | 30 | 30 | 60 | 10 |  |  |  | 
Cc1cc(C)c(N2Cc3cccc(Br)c3C2=O)cc1NS(=O)(=O)Cl [Compound 415] |  |  |  |  | 10 |  | 10 | 0 | 40 | 0 | 50 | 30 |  |  |  | 
C#CCN(C)C(=O)c1cc(NS(=O)(=O)C(F)(F)F)c(C)c(C)c1C [Compound 368] | 0 | 10 | 40 | 90 | 0 | 10 | 0 |  |  |  |  |  |  |  |  | 
Cc1ccc(C2=NOC3CCCC23)cc1NS(=O)(=O)C(F)(F)F (centres unmarked) [Compound 377] | 0 | 0 | 0 | 0 | 0 | 0 | 0 |  |  |  |  |  |  |  |  | 
Cc1c(C(=O)N2CCC(C)CC2)cc(N(COC(=O)C(C)(C)C)S(=O)(=O)C(F)(F)F)c(C)c1C [Compound 369] | 0 | 0 | 0 | 50 | 0 | 0 | 20 |  |  |  |  |  |  |  |  | 
Cc1c(C2=NOC3(CCCC3)C2)cc(N(COC(=O)C(C)(C)C)S(=O)(=O)C(F)(F)F)c(C)c1C [Compound 382] |  |  |  |  | 0 |  | 10 | 0 | 0 | 0 | 0 | 0 |  |  |  | 
Cc1cc(C)c(N2CCC3(CCC(C)CC3)C2=O)cc1NS(=O)(=O)C(F)(F)F (centres unmarked) [Compound 402] |  |  |  |  | 10 |  | 0 | 0 | 0 | 0 | 0 | 10 |  |  |  | 
Cc1cc(Cl)c(NS(=O)(=O)C(F)(F)F)cc1N1CCC2(CCCCC2)C1=O [Compound 393] |  |  |  |  | 0 |  | 0 |  |  | 0 | 30 | 10 |  |  |  | 
CCOC(=O)N(c1cc(C2=NOC3CCCC23)c(CC)cc1C)S(=O)(=O)C(F)(F)F (centres unmarked) [Compound 379] | 0 | 30 | 0 | 0 | 0 | 20 | 0 |  |  |  |  |  |  |  |  | 
Cc1cc(Cl)c(NS(=O)(=O)C(F)(F)F)cc1N1CC2(CCCCC2)OC1=O [Compound 394] |  |  |  |  | 0 |  | 0 |  |  | 0 | 40 | 0 |  |  |  | 
COC1CCN(C(=O)c2cc(NS(=O)(=O)C(F)(F)F)c(C)c(C)c2C)CC1 [Compound 367] | 0 | 0 | 0 | 70 | 0 | 0 | 15 |  |  |  |  |  |  |  |  | 
Cc1cc(C)c(N(COC(=O)C(C)(C)C)S(=O)(=O)C(F)(F)F)cc1N1CCC2(CCC(C)CC2)C1=O (centres unmarked) [Compound 401] |  |  |  |  | 0 |  | 45 | 0 | 30 | 10 | 60 | 30 |  |  |  | 
Cc1cc(C)c(N(COC(=O)C(C)(C)C)S(=O)(=O)C(F)(F)F)cc1N1CCC2(CCC(F)(F)CC2)C1=O [Compound 397] |  |  |  |  |  |  | 0 |  | 40 |  | 10 | 10 | 90 | 10 | 0 | 
Cc1cc(C)c(C2=NOC3OCCCC23)cc1NS(=O)(=O)C(F)(F)F (centres unmarked) [Compound 372] | 0 | 30 | 20 | 50 | 0 | 10 | 10 |  |  |  |  |  |  |  |  | 
Cc1c(NS(=O)(=O)C(F)(F)F)cc(C(=O)N2CCSCC2)c(C)c1C [Compound 283] | 0 | 10 | 0 | 0 |  | 0 | 0 |  |  |  |  |  |  |  |  | 0
Cc1cc(C)c(N2CCC3(CCC(C(F)(F)F)CC3)C2=O)cc1NS(=O)(=O)C(F)(F)F (centres unmarked) [Compound 400] |  |  |  |  | 0 |  | 25 | 0 | 30 | 0 | 0 | 0 |  |  |  | 
COc1cccc2c1C(=O)N(c1cc(N(COC(=O)C(C)(C)C)S(=O)(=O)Cl)c(C)cc1C)C2 [Compound 413] |  |  |  |  | 0 |  | 0 | 0 | 0 | 30 | 30 | 0 |  |  |  | 
Cc1c(C(=O)N2C[C@@H](C)O[C@H](C)C2)cc(N(COC(=O)C(C)(C)C)S(=O)(=O)C(F)(F)F)c(C)c1C (relative stereo) [Compound 373] | 0 | 10 | 0 | 40 | 0 | 10 | 20 |  |  |  |  |  |  |  |  | 
Cc1cc(C)c(N(COC(=O)C(C)(C)C)S(=O)(=O)C(F)(F)F)cc1N1CCC2(CCC(C(F)(F)F)CC2)C1=O (centres unmarked) [Compound 403] |  |  |  |  | 0 |  | 0 | 0 | 0 | 0 | 0 | 30 |  |  |  | 
Cc1c(C(=O)N2CCSCC2)cc(N(COC(=O)C(C)(C)C)S(=O)(=O)C(F)(F)F)c(C)c1C [Compound 285] | 0 | 30 | 0 | 0 |  | 10 | 0 |  |  |  |  |  |  |  |  | 0
CCOC(=O)N(c1cc(C(=O)N2CCSCC2)c(C)c(C)c1C)S(=O)(=O)C(F)(F)F [Compound 286] | 0 | 40 | 0 | 0 |  | 0 | 0 |  |  |  |  |  |  |  |  | 0
CCOC(=O)N(c1cc(C(=O)N2C[C@@H](C)O[C@H](C)C2)c(C)c(C)c1C)S(=O)(=O)C(F)(F)F (relative stereo) [Compound 374] | 0 | 10 | 60 | 70 | 0 | 10 | 0 |  |  |  |  |  |  |  |  | 
Cc1cc(C)c(N(COC(=O)C(C)(C)C)S(=O)(=O)C(F)(F)F)cc1C1=NOC(C(C)C)C1 (centres unmarked) [Compound 383] |  |  |  |  | 0 |  | 10 | 0 | 50 | 0 | 0 | 10 |  |  |  | 
CCc1cc(C)c(N(COC(=O)C(C)(C)C)S(=O)(=O)C(F)(F)F)cc1C1=NOC2CCCC12 (centres unmarked) [Compound 378] | 0 | 30 | 0 | 30 | 0 | 30 | 10 |  |  |  |  |  |  |  |  | 
C#CCN(C)C(=O)c1cc(N(COC(=O)C(C)(C)C)S(=O)(=O)C(F)(F)F)c(C)c(C)c1C [Compound 371] | 0 | 10 | 60 | 90 | 0 | 0 | 10 |  |  |  |  |  |  |  |  | 
Cc1c(NS(=O)(=O)C(F)(F)F)cc(C(=O)N2CCC(C)CC2)c(C)c1C [Compound 366] | 0 | 0 | 0 | 0 | 0 | 0 | 10 |  |  |  |  |  |  |  |  | 
